US7795240B1, “Nonreducing beta-glucan derivative” (Asahi Kasei Chemicals Corporation, priority 2003, dated 2010)

Legend:
Assay type in all cases: physicochemical
[1] = storage stability test of an equivalent mixture with L-arginine (degree of whiteness, coloration); conditions: for appearance (color) after storage / decrease ratio in degree of whiteness: 40° C., 2 weeks; for appearance (color) after storage / decrease ratio in degree of whiteness / degree of whiteness after the test: 75% RH, airtight; for degree of whiteness after the test: after 2 weeks at 40° C.; for degree of whiteness at the onset: at onset/initiation of the storage test
Source text: In a β-glucan derivative according to the present invention, a non-reducing end needs not to be bound to all reducing ends. A non-reducing end may be bound to reducing ends to the extent that an active ingredient such as a medicament or the like having an amino group is stably present. The conversion rate of a reducing end of the β-glucan into a non-reducing end is preferably 0.1 mol % or more. Whether an active ingredient is present in a stable state can be readily checked by an observation based on degree of coloration in a storage stability test in a condition that is performed by mixing an active ingredient and a β-glucan derivative in equivalent amounts and stored the mixture at 40° C. under 75%. Since it has a reducing end, β-glucan is known to initiate the Maillard reaction with an active ingredient having a terminal amino group to form an amino-carbonyl bond and produce color. However, a β-glucan derivative according to the present invention has an advantageous effect in that since the reducing end is inactivated by a non-reducing sugar, no coloring reaction takes place. The effect of the present invention is particularly effective for an active ingredient having a primary amine.
Whether fructose was bound was confirmed based on an increase of a peak in a mass spectrum and a storage stability test of an equivalent mixture of the obtained transglucosylated product and L-arginine contained at 40° C. and 75% RH, airtight for 2 weeks. A decrease ratio in degree of whiteness was 2% (it was 99% at the onset and 97% after the test).

[2] = hardness of molded cylindrical product (Schleuniger hardness tester type 6D)
Procedure: (§1) The hardness of the molded cylindrical product thus obtained was measured by a Schleuniger hardness tester type 6D (Trademark, manufactured by FREUND Corporation). More specifically, a load pressure was applied to the molded cylindrical product or a tablet in the direction of the diameter to break it. The weight at the moment was measured. The hardness was represented by an average value of 10 samples. Furthermore, the disintegration time of the molded cylindrical product was determined in accordance with a general test method, a disintegration test method for tablets specified in the Japanese Pharmacopeia, 14th revision, by use of a disintegration tester (Toyama Sangyo Co., Ltd., Trade name: NT-40HS type with a disk), at 37° C. in pure water. The disintegration time was represented by an average of 6 tablets

[3] = disintegration time of molded cylindrical product (Japanese Pharmacopeia disintegration test); conditions: 37° C., pure water
Procedure: as §1

Row | Substance | appearance (color) after storage [1] | decrease ratio in degree of whiteness [1] [%] | degree of whiteness after the test [1] [%] | degree of whiteness at the onset [1] [%] | hardness of the molded cylindrical product ([2]; compressed at 25 kN, φ8 mm, average of 10 samples) [N] | disintegration time of the molded cylindrical product ([3]; compressed at 25 kN, with disk, average of 6) [s] | hardness of the molded cylindrical product ([2]; compression pressure 35 kN) [N] | disintegration time of the molded cylindrical product ([3]; compression pressure 35 kN) [s]
1 | transglucosylated cellotriose [Example 1] | White color in appearance was maintained | 2 | 97 | 99 | 70 | 58 |  | 
2 | transglucosylated cellobiose [Comparative Example 2] | White color in appearance was maintained | 3 | 96 | 99 |  |  | 80 | 300
